What was measured:
[1] = system: Citrullus vulgaris urease (CVU); assay: Inhibition of CVU urease activity after 1 h incubation with inhibitor (phenol red assay); format: biochemical; details: for IC50: CVU incubated 1 h at 37 °C with inhibitor, 2 mM urea, pH 6.8; for Plateau (% of Initial): residual activity at plateau from the fit, 1 h at 37 °C
Description: (§1) The specific ureolytic activity was assayed spectrophotometrically at 37 °C in a Fluostar Omega (BMG LABTECH Inc, Cary, NC, USA) spectrometer. The reaction was monitoring by the increase of ammonia concentration following the absorbance at 558 nm by The Phenol Red Assay, taking similar considerations as the one described elsewhere. The standard urease test consisted in 0.3 mL of reaction buffer: 0.5 mM MES, 0.016 mM phenol red, and 50 mM urea, at pH 6.8. All assays were initiated by the addition of the enzyme (≈0.6 ng/mL). Initial velocity rates were determined from the initial linear portion of the reaction course-times. Saturation kinetics experiments were performed under the same conditions, except that different concentrations of urea were used (0.5 to 50 mM), and data were fitted to Michaelis-Menten model (Equation (1)). All experiments presented were reproduced at least three times.
To evaluate the saturation of CVU with inhibitors, enzyme was incubated for one hour at 37 °C with different concentrations of inhibitors in the standard reaction mixture, the reactions were started by the addition of urea to a final concentration of 2 mM, followed by the measurement of the residual activity. Percentages of residual activity were plotted against inhibitor concentration. Since two types of behavior were observed, two different equations were used to fit the data. In one case, we observed a trend that produced a full loss of activity (Equation (3)), and in the other case a partial inhibition is observed, meaning that at enzyme saturation activity value is non-zero (Equation (4)).
Equation (3): Full-Inhibition Saturation Kinetics, (3) residual activity (%) = A0 IC50h/IC50h+[I]^h where h, is the Hill coefficient; IC50 is the apparent inhibition constant; [I], is the inhibitor concentration. Residual activity and A0 is the same as in Equation (2).
Equation (4): Partially-Inhibition Saturation Kinetics, (4) residual activity (%)= A0 IC50h/IC50h+[I]^h+plateau where parameters and variables are same as in Equation (3), with the difference that a plateau is included.
Inhibition of CVU by Aldrithiol (2,2′-dipyridyl disulphide, here in after called DPS for dipyridine sulfide), captopril ((S)-1-(3-Mercapto-2-methyl-1-oxopropyl)-L-proline), bithionol (2,2′-Sulfanediylbis(4,6-dichlorophenol)) and quercetin were performed in a similar manner as for inhibition experiments with DSF. These inhibitors were purchased from Sigma-Aldrich (Toluca, Mexico). Inhibition kinetics data were fitted to the indicated equation. The protection of the activity by a given inhibitor (called I2), at a concentration equal to the IC50 value, over the inhibition produced by DPS was monitored measuring changes in initial velocity and plotting the percentage of inhibition for each treatment and expressed as mean ± SEM. Student t test was used to estimate statistical significance. Measurements of variance were performed using a one-way ANOVA. Differences were considered significant when p was less than 0.05. All experiments were performed at least three times, and in all cases the SEM justifies the accuracy of the values, except in the case of inhibition kinetics of bithionol and quercetin in which SEM is higher than 10% of the estimated value.

[2] = target: Citrullus vulgaris urease (CVU); assay: Binding equilibrium by intrinsic fluorescence quenching; details: 1 h after addition, 37 °C, read-out: DSF dissociation constant (Kd)
Description: The binding of DSF was monitored after apparent equilibrium by measuring the intrinsic tryptophan fluorescence intensity changes at 37 °C using a spectrometer (Fluostar Omega, BMG). CVU was excited at 290 nm, and fluorescence intensity was recorded at 340 nm after an hour of incubation at 37 °C in the absence or presence of different concentrations of DSF. In order to discard solvent fluorescent changes, a control experiment was performed in which the different volumes of solvent (same as in the titration volumes used in ligand additions) were added to urease. Fluorescence intensity changes were plotted against the DSF concentrations and fitted to […]. Equation (6): Fluorescence binding saturation, (6) ΔIF = Bmax [DSF]/Kd+[DSF] where ΔIF, is the change in fluorescence intensity at 340 nm; Bmax, is the maximum ΔIF and corresponds to the maximum binding; [DSF], is the disulfiram concentration and Kd, is the dissociation constant.

[3] = system: Citrullus vulgaris urease (CVU); assay: Time courses of inactivation of CVU pre-incubated with DSF; format: biochemical; details: 37 °C
Description: as §1
To evaluate the time and concentration-dependence of the inhibition of urease activity, the initial rates of urea hydrolysis were measured in the standard reaction mixture in the presence of DSF (tetraethylthiuram disulphide), (C2H5)2N(C=S)S–S(S=C)N(C2H5)2, during different incubation periods. DSF was purchased from Sigma-Aldrich (Toluca, Mexico). In these experiments urease reactions were started by the addition of urea to a final concentration of 2 mM. The residual activity in percentage of the initial was plotted against the time of incubation and fitted to an exponential decay equation with a plateau (Equation (2)).
Equation (2): Enzyme inactivation, (2) residual activity = (A0−plateau)(e^−kt)+plateau, where the residual activity is the observed activity upon the inhibition; A0, is the activity observed in the absence of the inhibitor; the plateau, is the value of Y minimum; k, is the observed one phase kinetic constant, and t is the time of incubation. Activity was transformed to percentage, where activity in the absence of DSF is 100%.

[4] = system: Citrullus vulgaris urease (CVU); assay: Inhibition pattern: urea saturation kinetics of CVU at fixed/variable DSF concentrations; format: biochemical
Description: as §1, with “three times. For the inhibition pattern urea saturation kinetics experiments were performed at fixed/variable concentrations of DSF and data were globally fitted to Equation (5).” for “three times.”

| IC50 [1] | Kd [2] | Ki ([4]; global fit to non-competitive inhibition, Equation (5), read-out: Inhibition constant (Ki)) | Compound | Plateau (% of Initial) [1] | apparent half-life time of inactivation ([3]; 50 µM DSF) | kobs of inactivation ([3]; 50 µM DSF) | plateau, % of the initial velocity ([3]; 50 µM DSF) | apparent half-life time of inactivation ([3]; 80 µM DSF) | kobs of inactivation ([3]; 80 µM DSF) | plateau, % of the initial velocity ([3]; 80 µM DSF) | Inhibition mechanism ([4]; Lineweaver–Burk plots of the inhibition pattern) |
| --- | --- | --- | --- | --- | --- | --- | --- | --- | --- | --- | --- |
| 155 ± 10.2 µM | – | – | O=c1c(O)c(-c2ccc(O)c(O)c2)oc2cc(O)cc(O)c12 [Quercetin, quercetin] | 58.86 ± 1.52 % of Initial | – | – | – | – | – | – | – |
| 524 ± 39.6 µM | – | – | CC(CS)C(=O)N1CCC[C@H]1C(=O)O (stereo partly drawn) [Captopril, (S)-1-(3-Mercapto-2-methyl-1-oxopropyl)-L-proline] | 0.00 % of Initial | – | – | – | – | – | – | – |
| 376 ± 120 µM | – | – | Oc1c(Cl)cc(Cl)cc1Sc1cc(Cl)cc(Cl)c1O [Bithionol, 2,2′-Sulfanediylbis(4,6-dichlorophenol)] | 34.53 ± 18.23 % of Initial | – | – | – | – | – | – | – |
| – | 54.9 ± 3.9 µM | 67.6 ± 7 µM | CCN(CC)C(=S)SSC(=S)N(CC)CC [DSF, tetraethylthiuram disulphide] | 0.00 % of Initial | 13.80 min | 0.050 ± 0.007 min⁻¹ | 63.60% ± 1.40 | 7.50 min | 0.092 ± 0.024 min⁻¹ | 53.48% ± 3.05 | non-competitive inhibition mechanism |
